Measured values published in patent publication US7169815B2, “3-methoxybenzyl thiourea derivatives and improved lipid compositions containing same” (The United States of America as represented by the …, priority 2000, dated 2007).

Assay: UVB and UVA molar absorptivities in chloroform
Type: physicochemical
Details: 0.01 mg/ml in chloroform
Method: The compounds synthesized in Example 3 were tested to determine their ability to absorb […] UVA light. UV spectra of quantitatively weighed and diluted samples (0.01 mg/ml) in chloroform were scanned from 244–450 nm at 240 nm/min on a Beckman DU 640 spectrophotometer (Beckman Coulter, Inc., Fullerton, Calif.). Amax in the 280–320 nm range was determined and converted to molar absorptivity for the UVB region, and Amax in the 320–400 nm range was determined and converted to molar absorptivity for the UVA region.

COc1cccc(CNC(=S)NCc2cccc(OC)c2)c1 [1,3-di(3-methoxybenzyl) thiourea]
UVBMAX Molar Absorptivity (Amax in 280–320 nm): 5367
UVAMAX Molar Absorptivity (Amax in 320–400 nm): 0.0
